Assay [1] addresses T1, Heat shock factor protein 1 (Mus musculus, UniProt P38532).
T1 sequence (P38532 whole entry): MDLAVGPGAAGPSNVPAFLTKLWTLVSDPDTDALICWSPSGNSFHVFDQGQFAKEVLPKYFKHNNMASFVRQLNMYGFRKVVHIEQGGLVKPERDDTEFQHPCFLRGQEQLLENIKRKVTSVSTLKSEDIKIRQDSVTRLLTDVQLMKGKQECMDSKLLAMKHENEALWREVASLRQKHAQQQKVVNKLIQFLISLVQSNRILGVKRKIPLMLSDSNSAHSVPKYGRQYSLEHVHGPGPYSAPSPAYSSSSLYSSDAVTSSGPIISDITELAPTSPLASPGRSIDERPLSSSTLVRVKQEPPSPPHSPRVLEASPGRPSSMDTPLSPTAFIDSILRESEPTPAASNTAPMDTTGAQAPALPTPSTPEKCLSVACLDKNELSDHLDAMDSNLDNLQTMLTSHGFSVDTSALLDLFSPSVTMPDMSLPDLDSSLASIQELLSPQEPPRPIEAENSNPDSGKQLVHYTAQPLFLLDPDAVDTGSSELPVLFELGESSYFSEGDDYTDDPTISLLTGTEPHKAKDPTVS
The assay can be described thus: HSF1 potentiators in luciferase reporter cells, confirmation, cell-based, NIH3T3, luminescence, dose retest (AID 435004).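 Also: stress induced by proteasome inhibitor MG132 added 30 min after compound; luciferase reporter driven by HSF1 response element in NIH3T3 cells; actives raise luminescence as potentiators of the MG132 stress response.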 It counts as functional. On the technique in general: In a reporter assay the amount or activity of a reporter protein is the signal.

Assay [2] deals with HEK293. In words: cells. The format is functional, cell-based. The settings on record: Homo sapiens.
Assay [3] deals with Streptococcus. The assay can be described thus: Group A Streptococcus viability loss, dose response, counter-screen for streptokinase expression inhibitor project, luminescence, BacTiterGlo (AID 1915).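 Also: potency for reduction of bacterial viability or growth.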 The format is functional, organism-based. For orientation: A counterscreen serves to expose hits that act by an unwanted route or on another target.
Assay [4] deals with T2, Lysine-specific demethylase 4C (Homo sapiens, UniProt Q9H3R0).
T2 sequence (Q9H3R0 whole entry): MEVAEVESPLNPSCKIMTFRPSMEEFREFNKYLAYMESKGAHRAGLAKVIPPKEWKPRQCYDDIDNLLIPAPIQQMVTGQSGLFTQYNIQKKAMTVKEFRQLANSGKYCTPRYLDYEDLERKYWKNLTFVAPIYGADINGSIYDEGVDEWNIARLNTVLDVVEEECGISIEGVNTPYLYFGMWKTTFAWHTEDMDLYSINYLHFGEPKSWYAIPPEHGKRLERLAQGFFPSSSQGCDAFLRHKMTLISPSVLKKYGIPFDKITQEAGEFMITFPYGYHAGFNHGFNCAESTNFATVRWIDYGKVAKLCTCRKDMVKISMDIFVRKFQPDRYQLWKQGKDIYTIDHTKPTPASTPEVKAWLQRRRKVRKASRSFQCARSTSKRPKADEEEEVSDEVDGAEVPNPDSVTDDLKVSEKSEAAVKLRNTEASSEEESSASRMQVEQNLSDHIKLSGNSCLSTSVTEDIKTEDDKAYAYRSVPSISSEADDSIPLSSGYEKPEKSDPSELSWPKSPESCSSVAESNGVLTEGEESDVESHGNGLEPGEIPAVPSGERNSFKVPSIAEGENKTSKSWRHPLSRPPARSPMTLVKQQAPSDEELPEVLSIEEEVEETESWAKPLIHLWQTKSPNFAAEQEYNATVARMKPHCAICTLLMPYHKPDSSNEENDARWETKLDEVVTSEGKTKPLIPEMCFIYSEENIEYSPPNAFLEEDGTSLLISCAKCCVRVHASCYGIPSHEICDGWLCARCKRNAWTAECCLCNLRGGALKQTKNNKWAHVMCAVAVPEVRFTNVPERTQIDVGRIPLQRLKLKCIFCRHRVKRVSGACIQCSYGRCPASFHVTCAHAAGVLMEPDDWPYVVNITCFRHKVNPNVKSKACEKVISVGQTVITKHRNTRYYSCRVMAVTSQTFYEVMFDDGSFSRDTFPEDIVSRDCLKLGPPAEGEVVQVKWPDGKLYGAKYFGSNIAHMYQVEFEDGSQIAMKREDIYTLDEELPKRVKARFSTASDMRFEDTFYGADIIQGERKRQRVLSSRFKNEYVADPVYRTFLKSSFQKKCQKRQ
The assay can be described thus: GASC-1 (JMJD2C) histone demethylase inhibitors, dose response, biochemical, DELFIA europium, cherry-picked samples (AID 488835). The format is functional.

The target in assay [5] is T3, Apoptotic protease-activating factor 1 (Homo sapiens, UniProt O14727).
T3 sequence (O14727 whole entry): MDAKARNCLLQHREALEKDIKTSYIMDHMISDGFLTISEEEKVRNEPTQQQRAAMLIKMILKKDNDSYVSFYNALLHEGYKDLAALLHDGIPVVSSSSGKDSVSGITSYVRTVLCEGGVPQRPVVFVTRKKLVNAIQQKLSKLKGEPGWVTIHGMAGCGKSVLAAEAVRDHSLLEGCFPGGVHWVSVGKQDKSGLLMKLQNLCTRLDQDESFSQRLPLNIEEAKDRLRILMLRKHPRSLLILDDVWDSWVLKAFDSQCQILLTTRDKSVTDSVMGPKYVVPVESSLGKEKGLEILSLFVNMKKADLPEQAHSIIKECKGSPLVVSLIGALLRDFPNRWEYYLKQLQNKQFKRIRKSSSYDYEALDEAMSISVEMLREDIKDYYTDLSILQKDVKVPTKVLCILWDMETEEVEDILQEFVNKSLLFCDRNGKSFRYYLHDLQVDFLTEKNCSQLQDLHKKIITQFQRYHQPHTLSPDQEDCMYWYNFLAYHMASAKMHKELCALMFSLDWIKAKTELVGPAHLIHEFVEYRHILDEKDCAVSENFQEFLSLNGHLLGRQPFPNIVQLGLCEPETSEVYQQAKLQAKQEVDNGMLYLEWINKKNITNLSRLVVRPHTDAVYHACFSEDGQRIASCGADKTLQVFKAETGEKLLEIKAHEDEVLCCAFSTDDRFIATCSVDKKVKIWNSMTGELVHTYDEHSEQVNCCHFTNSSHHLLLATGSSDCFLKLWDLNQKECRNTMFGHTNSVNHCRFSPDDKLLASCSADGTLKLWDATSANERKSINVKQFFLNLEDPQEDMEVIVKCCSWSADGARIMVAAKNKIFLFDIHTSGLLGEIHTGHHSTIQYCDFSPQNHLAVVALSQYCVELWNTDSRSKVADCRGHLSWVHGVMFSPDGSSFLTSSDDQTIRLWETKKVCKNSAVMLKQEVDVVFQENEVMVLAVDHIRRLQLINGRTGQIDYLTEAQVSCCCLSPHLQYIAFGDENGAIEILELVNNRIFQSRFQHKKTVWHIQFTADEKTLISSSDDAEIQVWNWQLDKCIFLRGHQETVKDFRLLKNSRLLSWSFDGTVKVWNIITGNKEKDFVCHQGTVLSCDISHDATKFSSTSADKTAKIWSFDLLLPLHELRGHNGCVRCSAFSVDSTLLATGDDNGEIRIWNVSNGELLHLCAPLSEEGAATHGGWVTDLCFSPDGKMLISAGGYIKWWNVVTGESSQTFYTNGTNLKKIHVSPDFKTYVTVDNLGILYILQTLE
The format is functional.

Assay [6] has as its target T1, Heat shock factor protein 1. The assay can be described thus: inhibition of MG132-induced HSE-luciferase signal, confirmation, cell-based, NIH3T3, luminescence, dose retest (AID 2382).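 Also: NIH3T3 fibroblasts with HSF1-driven luciferase reporter stressed by proteasome inhibitor MG132; luminescence from HSF1-driven luciferase expression after 8 hours of MG132 stress.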 The format is functional.
The nature of assay [7]: cytotoxicity in HEK-293T cells, dose response, cytotoxicity control for TCR NF-kB inhibitor project, luminescence, T-cell screen hits (AID 489026).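 Also: cells exposed to compound about 14 hours before the viability readout.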 The format is functional, cell-based.

Calls of active or inactive are those of the source. A value given as a limit tells only on which side of the number the result lay.

As usually defined, the EC50 is the concentration giving half of the maximal effect. As to `O=C(O)CSc1cc(NS(=O)(=O)c2ccc(Br)cc2)c2ccccc2c1O`, the EC50 in assay [1] is > 260 µM (inactive). As usually defined, the IC50 is the point on the concentration scale where inhibition reaches its midpoint. Regarding `O=C(CNc1cccc2ccccc12)N/N=C/c1ccc([N+](=O)[O-])o1`, in assay [2], the IC50 was 15.8 µM (active). Moreover, the EC50 in assay [3] is 6.2 µM (active).

By AC50 is commonly meant the concentration giving half of the maximal activity seen. With `O=C1NC(=S)N/C1=C/c1cc2c(cc1[N+](=O)[O-])OCO2`, the AC50 in assay [4] is 30.4 µM (active). For the same molecule, in assay [5], the IC50 is 12.9 µM (active). On to `Cc1ccc(NC(=O)C2=C(c3ccccc3)S(=O)(=O)CCS2(=O)=O)cc1`, for which the EC50 in assay [6] is 6.3 µM (active). The IC50 in assay [7] is > 80 µM (inactive).

Values taken from ChEMBL document CHEMBL1201862, “PubChem BioAssay data set” (2004).
